# Measurements taken from patent US12685757B2, “Method to increase systemic blood pressure in shock” (GEORGETOWN UNIVERSITY, priority 2019, dated 2026).
# How the values were obtained:
# [1] = tested on: isolated pressurized (60 mmHg) arteries; test: Ex vivo contractility of isolated pressurized arteries; design: species or system mice; details: arterioles
# Method: Ex vivo artery physiology: Skeletal muscle arteries (radial artery branch, artery #18, subscapular branch artery #14) and cerebellar branch, cerebral artery #3) were isolated and cannulated with glass micropipettes secured with monofilament threads. The pipette and bathing solution contained modified PSS (125 mM NaCl, 3 mM KCl, 26 mM NaHCO3, 1.25 mM NaH2PO4, 1 mM MgCl2, 4 mM D-glucose, and 2 mM CaCl2)) aerated with a gas mixture consisting of 95% 02, 5% CO2, to maintain pH (pH 7.4). Arterioles were pressure clamped (60 mmHg) using a custom-built apparatus in a heated imaging chamber (Tokai Hit), viewed with a 10× objective using a Nikon TE2000 microscope and recorded by a Retiga 3000 digital camera (QImaging). The arteriole diameter was measured at several locations along each arteriole using the NIH-ImageJ software's edge-detection plug-in (Diameter). The software automatically detects the distance between edges (by resampling a total of five times from adjacent pixels) yielding a continuous read-out SD of a vessel's diameter.
# DRG = test: nLacZ staining of DRG after systemic TRPV1 agonist (neurotoxicity); type: in vivo; details: 50 μg/kg; TRPV1-nLacZ reporter mice; preliminary data
# Excerpt: A potential adverse effect of TRPV1 agonists is toxicity to sensory nerves. Indeed, in vivo administration of the ultrapotent agonist, resiniferatoxin (RTX), or even high doses of capsaicin can lead to destruction of TRPV1+ neurons (Szallasi S and Blumberg P M, “Vanilloid receptor loss in rat sensory ganglia associated with long term desensitization to resiniferatoxin” Neurosci Lett 140 (1)(1992)51-54. In one embodiment, TRPV1 agonists that poorly penetrate the CNS, such as DkTx or BrP-LPA, are employed. In vivo toxicity is tested by the administration of TRPV1 agonists in TRPV1^PLAP-nLacZ mice based on the highest cumulative doses utilized in EXAMPLE 5. One week later, DRG are isolated and analyzed for nLacZ staining. […] This analysis therefore determines TRPV1 agonist neurotoxicity and forms an assay for toxicity limiting strategies. In one embodiment, BrP-LPA is employed as a more hydrophilic molecule than capsaicin with less neurotoxicity. In another embodiment, DkTx, with limited CNS penetration, is employed to avoid neurotoxicity.
# X-gal staining. TRPV1^PLAP-nlacZ mice were anesthetized with isoflurane and perfused through the heart using PBS (0.1M, pH 7.3) followed by ice-cold 2-4% buffered paraformaldehyde. […]
substance,measurement,setting,value
resiniferatoxin,response to prolonged application,[1],non-desensitizing response
same,nLacZ staining in DRG,DRG,nearly completely abolishes nLacZ staining
